This passage reports IC50 and inhibition results from patent US11306071B2, “Heterocyclic compounds as adenosine antagonists” (Nuvation Bio Inc., priority 2019, dated 2022).

The target in test [1] is adenosine A2a (human) membrane (Homo sapiens (Human), UniProt P29274). Kind of test: A2A adenosine receptor radioligand binding assay ([3H] CGS-21680). To be noted: radioligand [3H] CGS-21680 6 nM. The method, then:
A second A2A adenosine receptor radioligand binding assay protocol was used. The protocol used adenosine A2a (human) membrane (PerkinElmer RBHA2AM400UA) at a concentration of 5 μg/well/100 μl and the radioligand [3H] CGS-21680 (Cat No. PerkinElmer-NET1021250UC) at a final concentration of 6 nM. Testing compounds were diluted with DMSO to make 8-point 4-fold serial dilution, starting at 0.2 mM. CGS-15943 was the reference compound. 1 μl of compounds/high control/low control was transferred to the assay plate according to a plate map, followed by 100 μl of membrane stocks and 100 μl of radioligand, in assay buffer (50 mM Tris-HCl, 10 mM MgCl2, 1 mM EDTA, pH 7.4). The plate was sealed and incubated at RT for 2 hours. Unifilter-96 GF/C filter plates (Perkin Elmer Cat #6005174) were soaked with 50 μl of 0.3% PEI per well for at least 0.5 hour at room temperature. When the binding assays were completed, the reaction mixtures were filtered through GF/C plates using Perkin Elmer Filtermate Harvester, and each plate washed 4 times with cold wash buffer (50 mM Tris-HCl, 154 mM NaCl, pH 7.4). The filter plates were dried for 1 hour at 50 degrees. After drying, the bottom of the filter plate wells was sealed, 50 μl of Perkin Elmer Microscint 20 cocktail was added, and the top of the filter plate was sealed. ^3H trapped on the filter was counted using Perkin Elmer MicroBeta2 Reader. The data were analyzed with GraphPad Prism 5 to obtain binding IC50 values. The “Inhibition [% Control]” was calculated using the equation: % Inh=(1-Background subtracted Assay value/Background subtracted HC value)*100, where HC is high control.

Test [2] deals with adenosine A1 (human) membrane (Homo sapiens (Human), UniProt P30542). Kind of test: A1 adenosine receptor radioligand binding assay ([3H] DPCPX). To be noted: 200 nM compound; radioligand [3H] DPCPX 1 nM. Here is the method: A second A1 adenosine receptor radioligand binding assay protocol was used. The protocol used adenosine A1 (human) membrane (PerkinElmer ES-010-M400UA) at a concentration of 2.5 μg/well/100 μl and the radioligand [3H] DPCPX (Cat No. PerkinElmer-NET974250UC) at a final concentration of 1 nM. Testing compounds were tested at a final concentration of 200 nM. CGS-15943, the reference compound, was tested in an 8-point 4-fold serial dilution, starting at a top concentration of 1 μM. 1 μl of compounds/high control/low control was transferred to the assay plate according to a plate map, followed by 100 μl of membrane stocks and 100 μl of radioligand, in assay buffer (25 mM HEPES, 5 mM MgCl2, 1 mM CaCl2, 100 mM NaCl, pH 7.4). The plate was sealed and incubated at RT for 1 hour. Unifilter-96 GF/C filter plates (Perkin Elmer Cat #6005174) were soaked with 50 μl of 0.3% PEI per well for at least 0.5 hour at room temperature. When the binding assays were completed, the reaction mixtures were filtered through GF/C plates using Perkin Elmer Filtermate Harvester, and each plate washed 4 times with cold wash buffer (25 mM HEPES, 5 mM MgCl2, 1 mM CaCl2, 100 mM NaCl, pH 7.4). The filter plates were dried for 1 hour at 50 degrees. After drying, the bottom of the filter plate wells was sealed, 50 μl of Perkin Elmer Microscint 20 cocktail was added, and the top of the filter plate was sealed. ^3H trapped on the filter was counted using Perkin Elmer MicroBeta2 Reader. The data were analyzed with GraphPad Prism 5 to obtain binding IC50 values for the reference compound. The “Inhibition [% Control]” was calculated using the equation: % Inh=(1-Background subtracted Assay value/Background subtracted HC value)*100, where HC is high control.
Sequence of adenosine A1 (human) membrane (P30542 whole entry): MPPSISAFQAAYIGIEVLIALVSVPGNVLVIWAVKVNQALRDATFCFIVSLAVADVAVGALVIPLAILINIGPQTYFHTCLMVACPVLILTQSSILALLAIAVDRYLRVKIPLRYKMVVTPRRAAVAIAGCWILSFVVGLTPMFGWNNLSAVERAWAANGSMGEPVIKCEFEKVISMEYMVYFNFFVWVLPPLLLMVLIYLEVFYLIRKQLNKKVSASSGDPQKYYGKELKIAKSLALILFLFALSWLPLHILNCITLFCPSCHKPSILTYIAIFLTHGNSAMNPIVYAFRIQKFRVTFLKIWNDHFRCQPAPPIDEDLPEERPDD

The target of test [3] is HEK-293 cells expressing human recombinant adenosine A1 receptor (Homo sapiens (Human), UniProt P30542). Kind of test: cAMP assay (Assay 2), A1 receptor. In kind it is cell-based. The method, then: (§1) The functional activity of compounds was tested using Assay 2, below, to detect the presence of cAMP. Assay 1 is an alternative assay for this purpose. Activation of G-protein coupled receptors (such as A2A) results in activation of adenylyl cyclase which converts ATP into cAMP which is used as a downstream signaling molecule. Therefore, molecules which act as GPCR (or specifically A2A receptor) antagonists cause a decrease in intracellular cAMP concentration.
Sequence of HEK-293 cells expressing human recombinant adenosine A1 receptor (P30542 whole entry): as above
(§2) Assay 2 (Table B2): This assay used HEK-293 cells expressing human recombinant adenosine A2A receptor (or, alternatively, A1 receptor) that were grown prior to the test in media without antibiotic. 100 nL of test articles at 100x of final concentration were transferred to assay plate by Echo. Cells were washed twice with 5 mL of PBS and 10 μL of cells were mixed with 5 mL PBS. After aspirating the PBS and adding 1.5 mL versine, cells were incubated at 37° C. for 2-5 min. After centrifugation, 4 mL of medium was added and adjusted cell density to 5,000 cells/well with Stimulation Buffer. 10 μL of cells were aliquoted to the assay plate, centrifuged at 1000 rpm for 1 minute, and incubated for 60 minutes at room temperature. 5 μL 4× Eu-cAMP tracer solution and 5 μL 4× Ulight™-anti-cAMP solution were added to assay plate, followed by centrifugation and 60-minute incubation at room temperature. Plates were read on EnVision.
A general note: Changes in cAMP serve as a functional read-out for many G protein-coupled receptors.

Test [4] concerns the target HEK-293 cells expressing human recombinant adenosine A2A receptor (Homo sapiens (Human), UniProt P29274). Kind of test: cAMP assay (Assay 2), A2A receptor. The format is cell-based. Here is the method: as §1, §2

Sequence of adenosine A2a (human) membrane (P29274 whole entry): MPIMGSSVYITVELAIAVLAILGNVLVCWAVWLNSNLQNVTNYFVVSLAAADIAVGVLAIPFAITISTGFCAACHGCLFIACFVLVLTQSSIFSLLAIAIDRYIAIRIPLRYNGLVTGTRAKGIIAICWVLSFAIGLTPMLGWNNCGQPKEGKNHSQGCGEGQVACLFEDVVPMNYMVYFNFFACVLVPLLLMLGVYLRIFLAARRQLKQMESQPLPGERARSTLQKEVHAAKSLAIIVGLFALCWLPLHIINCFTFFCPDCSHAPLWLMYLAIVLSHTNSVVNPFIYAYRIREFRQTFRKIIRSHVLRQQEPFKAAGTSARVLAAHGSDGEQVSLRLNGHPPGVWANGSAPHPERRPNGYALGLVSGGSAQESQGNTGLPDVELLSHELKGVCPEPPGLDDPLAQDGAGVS
Sequence of HEK-293 cells expressing human recombinant adenosine A2A receptor (P29274 whole entry): as above

In the case of `N#Cc1cccc(-c2nc(N)cnc2-c2cc(Cl)c3ncccc3c2)c1F` [2-10, 3-(6-amino-3-(8-chloroquinolin-6-yl)pyrazin-2-yl)-2-fluorobenzonitrile], the IC50 – broadly, the concentration that gives 50% inhibition – is 3.1 nM in test [1], 27 nM in test [3] and 39 nM in test [4]. Further, 0.2 µM produced 79% inhibition in test [2].

As for `N#Cc1cccc(-c2nc(N)cnc2-c2cc(Cl)c3ncccc3c2)c1` [Compound No. 2-6, 3-(6-amino-3-(8-chloroquinolin-6-yl)pyrazin-2-yl)benzonitrile], the IC50 in test [1] is 3.7 nM; in test [3], 5 nM; in test [4] it was 44 nM. The inhibition (as a rule, the relative decrease from the control value, in per cent) at 0.2 µM in test [2] worked out at 90%.

For `N#Cc1cccc(-c2nc(N)cnc2-c2cc(Cl)c3[nH]ncc3c2)c1` [Compound No. 2-7, 3-(6-amino-3-(7-chloro-1H-indazol-5-yl)pyrazin-2-yl)benzonitrile], at 0.2 µM the inhibition in test [2] was 81%. In addition, in test [4], the IC50 amounted to 130 nM.

`N#Cc1cc(-c2nc(N)cnc2-c2cc(Cl)c3ncccc3c2)ccc1F` [Compound No. 2-13, 5-(6-amino-3-(8-chloroquinolin-6-yl)pyrazin-2-yl)-2-fluorobenzonitrile]: the inhibition at 0.2 µM in test [2] amounted to 54%. The IC50 in test [4] was 527 nM.

In the case of `C[C@@H](NC(=O)c1nc(-c2cc(Cl)c3ncccc3c2)c(-c2ccn(C)n2)nc1N)c1ccccn1` [Compound No. 100, (R)-3-amino-6-(8-chloroquinolin-6-yl)-5-(1-methyl-1H-pyrazol-3-yl)-N-(1-(pyridin-2-yl)ethyl)pyrazine-2-carboxamide], the IC50 in test [1] is 1.6 nM; in test [3] it was 22 nM; in test [4] it was 28 nM. The same compound yielded an inhibition at 0.2 µM in test [2] of 70%.

Take `Nc1nc(-c2ccc(F)cc2)c(-c2cc(Cl)c3ncccc3c2)nc1C(=O)NCCC1CCOCC1` [Compound No. 101, 3-amino-6-(8-chloroquinolin-6-yl)-5-(4-fluorophenyl)-N-(2-(tetrahydro-2H-pyran-4-yl)ethyl)pyrazine-2-carboxamide]: in test [2], the inhibition at 0.2 µM came to 66%. Further, in test [4], the IC50 came out at 238 nM.

For the compound `CC(NC(=O)c1nc(-c2cc(Cl)c3ncccc3c2)c(-c2ccc(F)cc2)nc1N)c1cccc(C#N)n1` (stereo not shown) [Compound No. 102, 3-amino-6-(8-chloroquinolin-6-yl)-N-(1-(6-cyanopyridin-2-yl)ethyl)-5-(4-fluorophenyl)pyrazine-2-carboxamide], the IC50 in test [1] is 1.9 nM; in test [3], 24 nM; in test [4], 143 nM. The compound further displayed an inhibition at 0.2 µM in test [2] of 93%.

For `CC(Oc1nc(-c2cc(Cl)c3ncccc3c2)c(-c2ccc(F)cc2)nc1N)c1ccccn1` (stereo not shown) [Compound No. 103, 5-(8-chloroquinolin-6-yl)-6-(4-fluorophenyl)-3-(1-(pyridin-2-yl)ethoxy)pyrazin-2-amine], at 0.2 µM the inhibition in test [2] was 19%. In test [4], the IC50 stood at 1420 nM.

Take `C[C@@H](NC(=O)c1nc(-c2cc(Cl)c3[nH]ncc3c2)c(-c2ccc(F)cc2)nc1N)c1ccccn1` [Compound No. 104, (R)-3-amino-6-(7-chloro-1H-indazol-5-yl)-5-(4-fluorophenyl)-N-(1-(pyridin-2-yl)ethyl)pyrazine-2-carboxamide]: the values for the IC50 in test [1], in test [3] and in test [4] were 0.9 nM, 117 nM and 76 nM, respectively. In addition, the inhibition at 0.2 µM in test [2] stood at 68%.

Take `N#Cc1cccc(CNC(=O)c2nc(-c3cc(Cl)c4ncccc4c3)c(-c3ccc(F)cc3)nc2N)n1` [Compound No. 105, 3-amino-6-(8-chloroquinolin-6-yl)-N-((6-cyanopyridin-2-yl)methyl)-5-(4-fluorophenyl)pyrazine-2-carboxamide]: the IC50 came to 1.2 nM in test [1], 10 nM in test [3] and 48 nM in test [4]. Moreover, testing at 0.2 µM in test [2] gave an inhibition of 94%.

For `C[C@@H](NC(=O)c1nc(-c2ccc3ncccc3c2)c(-c2ccn(C)n2)nc1N)c1ccccn1` [Compound No. 110, (R)-3-amino-5-(1-methyl-1H-pyrazol-3-yl)-N-(1-(pyridin-2-yl)ethyl)-6-(quinolin-6-yl)pyrazine-2-carboxamide], the results for the IC50 in test [1] and in test [4] were 2.9 nM and 75 nM, respectively. The compound also registered an inhibition at 0.2 µM in test [2] of 38%.

As to `C[C@H](NC(=O)c1nc(-c2cc(Cl)c3ncccc3c2)c(-c2ccccc2)nc1N)c1cccc(C#N)n1` [Compound No. 122, (S)-3-amino-6-(8-chloroquinolin-6-yl)-N-(1-(6-cyanopyridin-2-yl)ethyl)-5-phenylpyrazine-2-carboxamide], the IC50 in test [1] is under 0.6 nM; in test [4], 33 nM. Further, 0.2 µM produced 96% inhibition in test [2].

With `C[C@@H](NC(=O)c1nc(-c2ccc3ncccc3c2)c(-c2ccccc2)nc1N)c1ncccn1` [Compound No. 125, (R)-3-amino-5-phenyl-N-(1-(pyrimidin-2-yl)ethyl)-6-(quinolin-6-yl)pyrazine-2-carboxamide], the figures for the IC50 in test [1] and in test [4] were 1.2 nM and 27 nM, respectively.

Regarding `C[C@H](NC(=O)c1nc(-c2ccc3ncccc3c2)c(-c2ccccc2)nc1N)c1ncccn1` [Compound No. 126, (S)-3-amino-5-phenyl-N-(1-(pyrimidin-2-yl)ethyl)-6-(quinolin-6-yl)pyrazine-2-carboxamide], the IC50 was determined as 1.8 nM in test [1] and 110 nM in test [4]. In addition, 0.2 µM produced 41% inhibition in test [2].

As to `Nc1nc(-c2ccccc2)c(-c2ccc3ncccc3c2)nc1C(=O)NCCC1CCOCC1` [compound 89, 3-amino-5-phenyl-6-(quinolin-6-yl)-N-(2-(tetrahydro-2H-pyran-4-yl)ethyl)pyrazine-2-carboxamide], the IC50 turned out to be 16 nM in test [1] and 58 nM in test [4].

In the case of `C[C@@H](NC(=O)c1nc(-c2cc(Cl)c3ncccc3c2)c(-c2ccc(F)cc2)nc1N)c1ccccn1` [compound 106, (R)-3-amino-6-(8-chloroquinolin-6-yl)-5-(4-fluorophenyl)-N-(1-(pyridin-2-yl)ethyl)pyrazine-2-carboxamide], the inhibition at 0.2 µM in test [2] turned out to be 34%. Moreover, the IC50 in test [4] turned out to be 165 nM.

As for `CCN(CC)CCNC(=O)c1nc(-c2ccc3ncccc3c2)c(-c2ccccc2)nc1N` [compound 107, 3-amino-N-(2-(diethylamino)ethyl)-5-phenyl-6-(quinolin-6-yl)pyrazine-2-carboxamide], the inhibition at 0.2 µM in test [2] was 49%. The IC50 in test [4] turned out to be 191 nM.
